Reference: ChEMBL document CHEMBL5649166, “RIP3 induces apoptosis independent of pronecrotic kinase activity” (Mol Cell, 2014)

Experiments:
[1] = molecular target: Mitogen-activated protein kinase kinase kinase 14 (Homo sapiens) (UniProt Q99558); test: Inhibition of human NIK/MAP3K14 using at 1 uM in presence of 32P-ATP by Hotspot assay relative to control; values are per cent of control
[2] = molecular target: Tyrosine-protein kinase Blk (Homo sapiens) (UniProt P51451); test: Inhibition of human BLK using poly[Glu:Tyr] (4:1) as substrate at 1 uM in presence of 32P-ATP by Hotspot assay relative to control; values are per cent of control
Sequence of Tyrosine-protein kinase Blk (Homo sapiens) (P51451 2-505 limits assumed): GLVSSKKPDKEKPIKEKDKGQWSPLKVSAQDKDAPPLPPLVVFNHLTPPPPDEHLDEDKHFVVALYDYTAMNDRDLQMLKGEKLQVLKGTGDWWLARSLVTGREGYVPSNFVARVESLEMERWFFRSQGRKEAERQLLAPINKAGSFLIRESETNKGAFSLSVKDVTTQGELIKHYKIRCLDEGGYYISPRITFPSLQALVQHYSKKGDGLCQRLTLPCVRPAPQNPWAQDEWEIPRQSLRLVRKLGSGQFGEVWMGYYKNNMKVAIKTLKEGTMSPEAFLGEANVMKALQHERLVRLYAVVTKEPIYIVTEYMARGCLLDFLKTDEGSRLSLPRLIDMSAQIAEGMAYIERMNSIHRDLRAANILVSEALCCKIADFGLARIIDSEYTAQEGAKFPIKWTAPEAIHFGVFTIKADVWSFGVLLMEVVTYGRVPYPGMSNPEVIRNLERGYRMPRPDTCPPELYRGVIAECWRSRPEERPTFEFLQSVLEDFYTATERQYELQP

[3] = molecular target: T1, Serine/threonine-protein kinase TBK1 (Homo sapiens) (UniProt Q9UHD2); test: Inhibition of human TBK1 using myelin basic protein as substrate at 1 uM in presence of 32P-ATP by Hotspot assay relative to control; values are per cent of control
T1 sequence (whole entry): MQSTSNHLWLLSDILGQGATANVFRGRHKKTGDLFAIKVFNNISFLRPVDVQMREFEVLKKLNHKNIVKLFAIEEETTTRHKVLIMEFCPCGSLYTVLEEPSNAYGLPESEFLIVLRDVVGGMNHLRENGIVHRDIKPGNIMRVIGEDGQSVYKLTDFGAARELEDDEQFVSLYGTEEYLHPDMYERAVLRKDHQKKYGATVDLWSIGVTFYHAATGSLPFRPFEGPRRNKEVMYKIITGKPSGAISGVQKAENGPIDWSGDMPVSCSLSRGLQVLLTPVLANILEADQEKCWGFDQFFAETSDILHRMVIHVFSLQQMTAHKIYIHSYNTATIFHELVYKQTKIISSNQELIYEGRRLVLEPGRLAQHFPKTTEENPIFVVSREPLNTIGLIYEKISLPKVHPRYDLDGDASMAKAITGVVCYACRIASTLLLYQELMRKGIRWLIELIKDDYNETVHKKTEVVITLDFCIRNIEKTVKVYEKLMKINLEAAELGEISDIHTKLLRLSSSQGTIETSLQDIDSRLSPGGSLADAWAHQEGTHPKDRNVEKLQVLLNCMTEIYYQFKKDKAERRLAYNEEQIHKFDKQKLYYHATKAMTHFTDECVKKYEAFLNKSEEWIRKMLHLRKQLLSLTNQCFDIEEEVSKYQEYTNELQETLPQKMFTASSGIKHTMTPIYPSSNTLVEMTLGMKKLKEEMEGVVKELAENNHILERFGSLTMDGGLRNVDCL

[4] = molecular target: T2, Ephrin type-A receptor 3 (Homo sapiens) (UniProt P29320); test: Inhibition of human EPHA3 using poly[Glu:Tyr] (4:1) as substrate at 1 uM in presence of 32P-ATP by Hotspot assay relative to control; values are per cent of control
T2 sequence (whole entry): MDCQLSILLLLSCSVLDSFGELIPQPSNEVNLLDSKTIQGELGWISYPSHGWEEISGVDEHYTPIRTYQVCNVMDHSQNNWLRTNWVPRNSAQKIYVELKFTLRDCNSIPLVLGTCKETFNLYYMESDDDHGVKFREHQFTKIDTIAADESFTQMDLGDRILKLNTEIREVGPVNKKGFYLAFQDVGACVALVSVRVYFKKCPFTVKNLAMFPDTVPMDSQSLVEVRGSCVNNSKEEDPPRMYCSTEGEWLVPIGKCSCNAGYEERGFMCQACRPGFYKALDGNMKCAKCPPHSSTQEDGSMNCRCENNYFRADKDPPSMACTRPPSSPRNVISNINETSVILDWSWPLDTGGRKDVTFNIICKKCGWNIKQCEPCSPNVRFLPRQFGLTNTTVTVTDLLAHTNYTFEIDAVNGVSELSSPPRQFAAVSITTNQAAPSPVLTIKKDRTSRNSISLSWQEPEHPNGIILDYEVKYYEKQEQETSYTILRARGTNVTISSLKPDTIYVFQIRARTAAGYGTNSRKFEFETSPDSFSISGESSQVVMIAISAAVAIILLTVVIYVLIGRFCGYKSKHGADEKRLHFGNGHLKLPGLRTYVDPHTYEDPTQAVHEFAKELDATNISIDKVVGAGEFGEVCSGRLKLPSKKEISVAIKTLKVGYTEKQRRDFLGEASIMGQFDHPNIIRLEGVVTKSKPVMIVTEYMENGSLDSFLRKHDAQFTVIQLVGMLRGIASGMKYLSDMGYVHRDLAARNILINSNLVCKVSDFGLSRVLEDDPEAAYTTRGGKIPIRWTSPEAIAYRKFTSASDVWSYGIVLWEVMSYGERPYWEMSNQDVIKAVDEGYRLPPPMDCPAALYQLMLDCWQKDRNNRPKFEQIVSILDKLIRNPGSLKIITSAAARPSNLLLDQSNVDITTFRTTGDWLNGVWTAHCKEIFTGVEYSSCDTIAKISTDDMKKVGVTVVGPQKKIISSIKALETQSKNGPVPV

[5] = species: Homo sapiens; test: Inhibition of human CDK2/cyclin A using RB Protein as substrate at 1 uM in presence of 32P-ATP by Hotspot assay relative to control; values are per cent of control
[6] = molecular target: T3, Serine/threonine-protein kinase DCLK2 (Homo sapiens) (UniProt Q8N568); test: Inhibition of human DCAMKL2 using KKLNRTLSFAEPG as substrate at 1 uM in presence of 32P-ATP by Hotspot assay relative to control; values are per cent of control
T3 sequence (whole entry): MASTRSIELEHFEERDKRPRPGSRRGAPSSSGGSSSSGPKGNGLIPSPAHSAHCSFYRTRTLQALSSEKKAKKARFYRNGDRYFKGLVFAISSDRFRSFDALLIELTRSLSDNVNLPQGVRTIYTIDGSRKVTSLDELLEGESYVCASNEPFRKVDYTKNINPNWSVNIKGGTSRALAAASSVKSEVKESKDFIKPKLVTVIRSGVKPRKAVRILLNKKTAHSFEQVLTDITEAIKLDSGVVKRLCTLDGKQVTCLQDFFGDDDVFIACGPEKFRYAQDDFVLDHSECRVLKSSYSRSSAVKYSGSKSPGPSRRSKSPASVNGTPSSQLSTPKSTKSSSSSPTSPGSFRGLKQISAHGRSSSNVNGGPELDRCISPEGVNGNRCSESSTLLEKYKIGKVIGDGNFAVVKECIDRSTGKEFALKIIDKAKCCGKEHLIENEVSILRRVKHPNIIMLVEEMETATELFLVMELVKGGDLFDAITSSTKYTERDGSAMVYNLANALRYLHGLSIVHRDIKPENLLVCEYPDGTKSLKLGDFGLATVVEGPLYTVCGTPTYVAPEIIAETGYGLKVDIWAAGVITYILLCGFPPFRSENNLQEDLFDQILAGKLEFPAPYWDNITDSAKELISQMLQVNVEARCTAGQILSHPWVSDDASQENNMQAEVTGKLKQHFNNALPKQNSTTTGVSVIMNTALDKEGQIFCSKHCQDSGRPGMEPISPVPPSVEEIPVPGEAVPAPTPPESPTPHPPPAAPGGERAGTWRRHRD

Sequence of Mitogen-activated protein kinase kinase kinase 14 (Homo sapiens) (Q99558 whole entry, looked up): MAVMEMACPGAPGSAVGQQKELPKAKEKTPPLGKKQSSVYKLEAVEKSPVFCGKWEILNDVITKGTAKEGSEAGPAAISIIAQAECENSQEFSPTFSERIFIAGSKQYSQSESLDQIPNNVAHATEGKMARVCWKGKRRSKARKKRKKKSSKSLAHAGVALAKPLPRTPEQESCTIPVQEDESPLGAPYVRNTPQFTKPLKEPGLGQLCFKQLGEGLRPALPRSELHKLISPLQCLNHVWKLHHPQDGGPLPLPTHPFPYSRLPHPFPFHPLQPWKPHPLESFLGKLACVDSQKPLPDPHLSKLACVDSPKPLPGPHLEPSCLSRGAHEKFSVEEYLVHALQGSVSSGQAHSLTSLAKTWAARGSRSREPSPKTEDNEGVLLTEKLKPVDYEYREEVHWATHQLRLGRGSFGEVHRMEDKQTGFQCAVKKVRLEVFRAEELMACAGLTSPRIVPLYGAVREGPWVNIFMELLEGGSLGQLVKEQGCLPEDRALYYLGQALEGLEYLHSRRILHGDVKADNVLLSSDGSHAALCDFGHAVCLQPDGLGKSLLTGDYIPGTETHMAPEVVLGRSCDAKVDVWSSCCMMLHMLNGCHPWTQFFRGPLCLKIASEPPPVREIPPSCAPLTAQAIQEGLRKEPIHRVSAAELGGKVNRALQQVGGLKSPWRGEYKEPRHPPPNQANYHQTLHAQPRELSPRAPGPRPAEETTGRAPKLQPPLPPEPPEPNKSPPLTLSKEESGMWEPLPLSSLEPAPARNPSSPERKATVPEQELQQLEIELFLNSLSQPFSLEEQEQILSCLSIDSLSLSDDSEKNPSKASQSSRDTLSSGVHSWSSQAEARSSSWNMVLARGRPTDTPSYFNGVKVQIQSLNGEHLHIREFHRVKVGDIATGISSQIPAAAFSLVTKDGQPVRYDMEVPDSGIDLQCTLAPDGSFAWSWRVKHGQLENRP

Row | SMILES | residual activity [1] [%] | residual activity [2] [%] | residual activity [3] [%] | residual activity [4] [%] | residual activity [5] [%] | residual activity [6] [%]
1 | Cc1cc(-c2cnc(N)c3c(-c4ccc5scnc5c4)csc23)n(C)n1 | 92.9 | 39.3 | 105 | 80 | 86 | 95.2
2 | CC(C)S(=O)(=O)c1ccc2nccc(Nc3ccc4scnc4c3)c2c1 | 89.5 | 62.8 | 96.1 | 92 | 97.2 | 99.4
3 | CNC(=O)c1ccc2c(c1)ncn2-c1ccc(CC(=O)OC(C)(C)C)cc1 | 95.3 | 73.9 | 84.2 | 82.7 | 101 | 98.6
